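GI50 = concentration required for 50% inhibition of growth. TGI denotes the concentration required for complete inhibition of growth.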
How the values were obtained:
Assay in all cases: NCI-60 cell line screen, 384-well format
SF-295 CNS = system: SF-295 CNS
PC-3 prostate = system: PC-3 prostate
NCI-H522 lung = system: NCI-H522 lung
HCT-15 colon = system: HCT-15 colon
RPMI-8226 leukemia = system: RPMI-8226 leukemia
SW-620 colon = system: SW-620 colon
SK-OV-3 ovarian = system: SK-OV-3 ovarian
ACHN renal = system: ACHN renal
MCF7 breast = system: MCF7 breast
OVCAR-8 ovarian = system: OVCAR-8 ovarian
SK-MEL-2 melanoma = system: SK-MEL-2 melanoma
NCI-H460 NSCLC = system: NCI-H460 NSCLC
OVCAR-4 ovarian = system: OVCAR-4 ovarian
BT-549 breast = system: BT-549 breast
HL-60(TB) leukemia = system: HL-60(TB) leukemia
OVCAR-5 ovarian = system: OVCAR-5 ovarian
K-562 leukemia = system: K-562 leukemia
TK-10 renal = system: TK-10 renal
EKVX NSCLC = system: EKVX NSCLC
KM12 colon = system: KM12 colon
NCI-H226 lung = system: NCI-H226 lung
LOX IMVI melanoma = system: LOX IMVI melanoma
DU-145 prostate = system: DU-145 prostate
HCC-2998 colon = system: HCC-2998 colon
A549 NSCLC = system: A549 NSCLC
CAKI-1 renal = system: CAKI-1 renal
HS 578T breast = system: HS 578T breast
HOP-62 NSCLC = system: HOP-62 NSCLC
SK-MEL-5 melanoma = system: SK-MEL-5 melanoma
MDA-MB-435 melanoma = system: MDA-MB-435 melanoma
HOP-92 NSCLC = system: HOP-92 NSCLC
MDA-MB-231 breast = system: MDA-MB-231 breast
OVCAR-3 ovarian = system: OVCAR-3 ovarian
HCT-116 colon = system: HCT-116 colon
786-0 renal = system: 786-0 renal
MOLT-4 leukemia = system: MOLT-4 leukemia
NCI/ADR-RES ovarian = system: NCI/ADR-RES ovarian
NCI-H23 lung = system: NCI-H23 lung
SR leukemia = system: SR leukemia
IGROV1 ovarian = system: IGROV1 ovarian
MDA-MB-468 breast = system: MDA-MB-468 breast
SN12C renal = system: SN12C renal
SK-MEL-28 melanoma = system: SK-MEL-28 melanoma
M14 melanoma = system: M14 melanoma
SNB-19 CNS = system: SNB-19 CNS
MALME-3M melanoma = system: MALME-3M melanoma
U251 glioblastoma = system: U251 glioblastoma
NCI-H322M lung = system: NCI-H322M lung
T-47D breast = system: T-47D breast
HT29 colon = system: HT29 colon
SNB-75 CNS = system: SNB-75 CNS
SF-539 CNS = system: SF-539 CNS
SF-268 CNS = system: SF-268 CNS
UACC-62 melanoma = system: UACC-62 melanoma
UACC-257 melanoma = system: UACC-257 melanoma
COLO 205 colon = system: COLO 205 colon
UO-31 renal = system: UO-31 renal
RXF 393 renal = system: RXF 393 renal
A498 renal = system: A498 renal

Work on CC(C)C[C@H](NC(=O)CNC(=O)c1cc(Cl)ccc1Cl)B1OC(=O)CC(CC(=O)O)(C(=O)O)O1 (stereo partly drawn) yielded a GI50 (SF-295 CNS) of 30.5 nM, a TGI (SF-295 CNS) of 88.4 nM and a GI50 (PC-3 prostate) of 48.1 nM. The TGI (PC-3 prostate) was 113 nM, the GI50 (NCI-H522 lung) was 15.7 nM and the TGI (NCI-H522 lung) was 31.1 nM. It also gave a GI50 (HCT-15 colon) of 36.7 nM, a TGI (HCT-15 colon) of 101 nM and a GI50 (RPMI-8226 leukemia) of less than 13.2 nM. It also gave a TGI (RPMI-8226 leukemia) of less than 17.7 nM, a GI50 (SW-620 colon) of less than 15.3 nM and a TGI (SW-620 colon) of 33.2 nM. The GI50 (SK-OV-3 ovarian) was 204 nM, the TGI (SK-OV-3 ovarian) was 1550 nM and the GI50 (ACHN renal) was less than 20.3 nM. It also gave a TGI (ACHN renal) of 63.7 nM, a GI50 (MCF7 breast) of less than 21.3 nM and a TGI (MCF7 breast) of 619 nM. The GI50 (OVCAR-8 ovarian) was 66.8 nM, the TGI (OVCAR-8 ovarian) was 158 nM and the GI50 (SK-MEL-2 melanoma) was 21.5 nM. It also gave a TGI (SK-MEL-2 melanoma) of 42 nM, a GI50 (NCI-H460 NSCLC) of 92.3 nM and a TGI (NCI-H460 NSCLC) of 317 nM. For the same compound, the GI50 (OVCAR-4 ovarian) was 53.2 nM, the TGI (OVCAR-4 ovarian) was 117 nM and the GI50 (BT-549 breast) was 16.1 nM. The TGI (BT-549 breast) was 30.8 nM, the GI50 (HL-60(TB) leukemia) was less than 13.4 nM and the TGI (HL-60(TB) leukemia) was 19.9 nM. It also gave a GI50 (OVCAR-5 ovarian) of 50.5 nM, a TGI (OVCAR-5 ovarian) of 181 nM and a GI50 (K-562 leukemia) of 17.2 nM. For the same compound, the TGI (K-562 leukemia) was 35 nM, the GI50 (TK-10 renal) was less than 18 nM and the TGI (TK-10 renal) was 53 nM. The GI50 (EKVX NSCLC) was 97.4 nM, the TGI (EKVX NSCLC) was 448 nM and the GI50 (KM12 colon) was 54.7 nM. The TGI (KM12 colon) was 148 nM, the GI50 (NCI-H226 lung) was less than 13.5 nM and the TGI (NCI-H226 lung) was 24.5 nM. For the same compound, the GI50 (LOX IMVI melanoma) was 33.9 nM, the TGI (LOX IMVI melanoma) was 125 nM and the GI50 (DU-145 prostate) was 44.1 nM. It also gave a TGI (DU-145 prostate) of 233 nM, a GI50 (HCC-2998 colon) of 51.5 nM and a TGI (HCC-2998 colon) of 101 nM. For the same compound, the GI50 (A549 NSCLC) was 106 nM, the TGI (A549 NSCLC) was 1510 nM and the GI50 (CAKI-1 renal) was less than 20.4 nM. For the same compound, the TGI (CAKI-1 renal) was 152 nM, the GI50 (HS 578T breast) was 16.7 nM and the TGI (HS 578T breast) was 32.7 nM. It also gave a GI50 (HOP-62 NSCLC) of 42.3 nM, a TGI (HOP-62 NSCLC) of 164 nM and a GI50 (SK-MEL-5 melanoma) of less than 15.5 nM. For the same compound, the TGI (SK-MEL-5 melanoma) was 28.1 nM, the GI50 (MDA-MB-435 melanoma) was less than 14.8 nM and the TGI (MDA-MB-435 melanoma) was 28.3 nM. For the same compound, the GI50 (HOP-92 NSCLC) was 30 nM, the TGI (HOP-92 NSCLC) was 71.8 nM and the GI50 (MDA-MB-231 breast) was 33.3 nM. The TGI (MDA-MB-231 breast) was 86.3 nM, the GI50 (OVCAR-3 ovarian) was less than 14.3 nM and the TGI (OVCAR-3 ovarian) was 26.4 nM. For the same compound, the GI50 (HCT-116 colon) was less than 15.9 nM, the TGI (HCT-116 colon) was 34.7 nM and the GI50 ([…]-0 renal) was 24 nM. The TGI (786-0 renal) was 91.6 nM, the GI50 (MOLT-4 leukemia) was less than 12.8 nM and the TGI (MOLT-4 leukemia) was less than 17.4 nM. For the same compound, the GI50 (NCI/ADR-RES ovarian) was 189 nM, the TGI (NCI/ADR-RES ovarian) was 448 nM and the GI50 (NCI-H23 lung) was 26.8 nM. It also gave a TGI (NCI-H23 lung) of 75.5 nM, a GI50 (SR leukemia) of less than 17.7 nM and a TGI (SR leukemia) of less than 21.6 nM. It also gave a GI50 (IGROV1 ovarian) of 70.6 nM, a TGI (IGROV1 ovarian) of 178 nM and a GI50 (MDA-MB-468 breast) of less than 14.4 nM. For the same compound, the TGI (MDA-MB-468 breast) was less than 20.6 nM, the GI50 (SN12C renal) was 87.3 nM and the TGI (SN12C renal) was 263 nM. It also gave a GI50 (SK-MEL-28 melanoma) of less than 14.4 nM, a TGI (SK-MEL-28 melanoma) of 25.3 nM and a GI50 (M14 melanoma) of 16.5 nM. For the same compound, the TGI (M14 melanoma) was 32.6 nM, the GI50 (SNB-19 CNS) was 59.4 nM and the TGI (SNB-19 CNS) was 272 nM. It also gave a GI50 (MALME-3M melanoma) of less than 13.7 nM, a TGI (MALME-3M melanoma) of 27.5 nM and a GI50 (U251 glioblastoma) of 98.5 nM. For the same compound, the TGI (U251 glioblastoma) was 472 nM, the GI50 (NCI-H322M lung) was 351 nM and the TGI (NCI-H322M lung) was 2020 nM. The GI50 (T-47D breast) was 25.6 nM, the TGI (T-47D breast) was 70.8 nM and the GI50 (HT29 colon) was 23.4 nM. The TGI (HT29 colon) was 62.4 nM, the GI50 (SNB-75 CNS) was 47.4 nM and the TGI (SNB-75 CNS) was 118 nM. The GI50 (SF-539 CNS) was 15.1 nM, the TGI (SF-539 CNS) was 31.3 nM and the GI50 (SF-268 CNS) was 23.6 nM. For the same compound, the TGI (SF-268 CNS) was 53.8 nM, the GI50 (UACC-62 melanoma) was 25.6 nM and the TGI (UACC-62 melanoma) was 66.1 nM. The GI50 (UACC-257 melanoma) was 17.3 nM, the TGI (UACC-257 melanoma) was 33.3 nM and the GI50 (COLO 205 colon) was 58 nM. It also gave a TGI (COLO 205 colon) of 557 nM, a GI50 (UO-31 renal) of 18 nM and a TGI (UO-31 renal) of 36.6 nM. The GI50 (RXF 393 renal) was less than 14 nM, the TGI (RXF 393 renal) was 27.1 nM and the GI50 (A498 renal) was less than 23.7 nM. The TGI (A498 renal) was 191 nM.

Reference: PubChem BioAssay (NCI)
